What was measured:
[1] = test system: MPTP-treated common marmoset; assay: Anti-dyskinesia activity: LID score in MPTP-treated common marmoset model with repeated L-DOPA; type: in vivo; details: L-DOPA-induced dyskinesia (LID) score, test compound plus L-DOPA vs vehicle plus L-DOPA, 4 animals per group
Excerpt: Parkinson's disease is characterized by degeneration and neuronal cell death of the nigrostriatal dopaminergic neurons. In primates, treatment with a dopamine neurotoxin, 1-methyl-4-phenyl-1,2,3,6-tetrahydropyridine (hereinafter referred to as “MPTP”), causes selective degeneration and loss of the nigrostriatal dopaminergic neurons, showing akinesia, rigidity, etc. These MPTP-treated primates are known as a model of Parkinson's disease [Proceedings of the National Academy of Science USA, Vol. 80, p. 4546 (1983)]. Common marmoset belongs to Anthropoidea and is known to show Parkinsonian symptoms caused by MPTP treatment as in the case of other Anthropoidea [Neuroscience Letter, Vol. 57, p. 37 (1985)). On the other hand, current treatment for Parkinson's disease is based primarily on dopamine replacement therapy by administration of L-DOPA. The administration of L-DOPA is effective treatment of symptoms associated with Parkinson's disease (anti-Parkinson activity). However, the long-term therapy using L-DOPA is known to cause loss of medicinal efficacy (wearing off and on-off), dyskinesia, psychosis, etc. Particularly, L-DOPA-induced dyskinesia (hereinafter referred to as “LID”) has become an issue due to the frequency of its development and the pain of the patients. […] 731 (1995)].
This test was carried out using 4 animals per group of female and male common marmosets of 5 to 7 years of age (300 to 375 g in body weight, CLEA Japan). MPTP (RBI) was dissolved in physiological saline for injection (Otsuka Pharmaceutical Co., Ltd.) and subcutaneously administered to each common marmoset once a day for 5 days in a dose of 2.0 mg/kg. More than six weeks after the administration, animals showing chronic symptoms of Parkinson's disease were used to prepare a model of dyskinesia. […] The locomotor activity was measured at 10-minute intervals for 12 hours by a computer-controlled automatic measuring apparatus. […]

[2] = target: T1, α2C-adrenoceptor (Homo sapiens, UniProt P18825); details: described in J. Pharmacol. Exp. Ther. 271, 1558 (1994) and Proc. Natl. Acad. Sci. USA 85, 6301 (1988); cited from earlier work
T1 sequence (P18825 1-462): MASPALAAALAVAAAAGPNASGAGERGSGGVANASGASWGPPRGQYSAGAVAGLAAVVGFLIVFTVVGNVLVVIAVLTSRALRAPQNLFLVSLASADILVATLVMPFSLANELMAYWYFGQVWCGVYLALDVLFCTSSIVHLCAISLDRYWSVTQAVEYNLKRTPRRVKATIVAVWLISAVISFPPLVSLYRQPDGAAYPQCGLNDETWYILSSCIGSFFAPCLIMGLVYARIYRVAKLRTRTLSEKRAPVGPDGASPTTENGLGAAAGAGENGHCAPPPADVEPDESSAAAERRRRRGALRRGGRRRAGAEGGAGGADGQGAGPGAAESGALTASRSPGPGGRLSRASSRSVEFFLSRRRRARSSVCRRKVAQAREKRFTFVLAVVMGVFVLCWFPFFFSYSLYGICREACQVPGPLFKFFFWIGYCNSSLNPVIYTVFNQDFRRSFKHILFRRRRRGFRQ

melting point [°C]	SMILES	anti-dyskinesia activity [1]	affinity to α2C-adrenoceptor [2]
168.7 to 169.2	Nc1ncc(CN2CCN(Cc3ccncc3)CC2)c2nc(-c3ccco3)nn12 [Compound 35, 5-Amino-2-(2-furyl)-8-[4-(4-pyridylmethyl)piperazin-1-ylmethyl][1,2,4]triazolo[1,5-c]pyrimidine]		
	c1ccc2c(c1)OCC(C1=NCCN1)O2 (stereo not shown) [idazoxan]	showed anti-dyskinesia activity	having an affinity to α2C-adrenoceptor
	CC1c2ccccc2CN1CC1=NCCN1 (stereo not shown) [BRL44408]	did not show anti-dyskinesia activity	low affinity
	COc1ccccc1N1CCN(CCN2C(=O)c3ccccc3C(C)(C)C2=O)CC1 [ARC239]	showed anti-dyskinesia activity	having an affinity to α2C-adrenoceptor

Reference: patent US20040110826A1, “Receptor Antagonists” (priority 2001, published 2004)
